In patent US5885987A, “Phenylene derivatives” (Kowa Co., Ltd., priority 1996, dated 1999):
Where two headings read alike, the source gives them in different places. Blank lines part the entries; values can stand above or below the compound they belong to.

How the values were obtained:
H1 receptor = target: T1, H1 receptor (Cavia porcellus, UniProt P31389); assay: H1 receptor binding inhibition test ([^3 H]mepyramin, guinea pig cerebromembranous protein); conditions: for Kd: read-out: H1 receptor, dissociation constant KD
T1 construct: guinea pig cerebromembranous protein; from tissue; host or cells: guinea pig cerebral (brain) membranes
Protocol: 1) H1 Receptor Binding Inhibition Test
An ice-cooled phosphate buffer was added to terminate the reaction, followed by immediate filtration through a Wattman CF/C filter. The filter was washed twice with 20 ml aliquots of the ice-cooled buffer. The radioactivity of the residue was measured by a liquid scintillation counter. From a measurement value obtained without the addition of the test compound and measurements values obtained upon addition of the test compound at various concentrations, the dose-response of the inhibitory action of the test compound was measured and the 50% inhibitory concentration (IC50) was determined. Using the Cheng-Prusoff formula, a dissociation constant was calculated from the IC50. In a binding assay, 10^-4 M R(-)dimethindene was used for the measurement of a nonspecific binding.

LTD4 receptor = target: T2, LTD4 receptor (Cavia porcellus, UniProt Q2NNR5); assay: LTD4 receptor binding inhibition test ([^3 H]leukotriene D4, guinea pig pulmomembranous protein); conditions: for Kd: read-out: LTD4 receptor, dissociation constant KD; for inhibition at 10 µM / inhibition at 100 µM: read-out: LTD4 receptor (%), inhibition rate; for inhibition at 100 µM: a: 100 μM
T2 construct: guinea pig pulmomembranous protein; from tissue; host or cells: guinea pig lung membranes
T2 sequence (Q2NNR5 1-340): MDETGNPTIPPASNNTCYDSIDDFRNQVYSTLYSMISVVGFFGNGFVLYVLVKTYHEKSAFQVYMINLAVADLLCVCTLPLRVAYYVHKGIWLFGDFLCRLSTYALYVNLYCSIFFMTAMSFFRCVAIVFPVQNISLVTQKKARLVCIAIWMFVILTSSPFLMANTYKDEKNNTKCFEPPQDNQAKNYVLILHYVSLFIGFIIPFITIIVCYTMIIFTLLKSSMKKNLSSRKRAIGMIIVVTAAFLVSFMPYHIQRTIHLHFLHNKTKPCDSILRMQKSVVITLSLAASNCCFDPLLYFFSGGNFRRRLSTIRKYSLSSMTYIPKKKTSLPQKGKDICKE
Protocol: 2) LTD4 Receptor Binding Inhibition Test
An ice-cooled tris hydrochloride/sodium chloride buffer (10 mM/100 mM, pH 7.5) was added to terminate the reaction, followed by immediate filtration through a Wattman CF/C filter. The filter was washed twice with 20 ml aliguots of the ice-cooled buffer. The radioactivity of the residue was measured by a liquid scintillation counter. […] In a binding assay, 2 μM leukotriene D4 was used for the measurement of a nonspecific binding.

[1] = 0.2 nM [^3 H]leukotriene D4, pH 7.5, 22° C., 30 minutes, calculated from IC50
[2] = 0.5 nM [^3 H]mepyramin, pH 7.5, 37° C., 30 minutes, calculated from IC50 with Cheng-Prusoff formula
[3] = a: 100 μM, read-out: H1 receptor (%), inhibition rate

T1 sequence (P31389 whole entry): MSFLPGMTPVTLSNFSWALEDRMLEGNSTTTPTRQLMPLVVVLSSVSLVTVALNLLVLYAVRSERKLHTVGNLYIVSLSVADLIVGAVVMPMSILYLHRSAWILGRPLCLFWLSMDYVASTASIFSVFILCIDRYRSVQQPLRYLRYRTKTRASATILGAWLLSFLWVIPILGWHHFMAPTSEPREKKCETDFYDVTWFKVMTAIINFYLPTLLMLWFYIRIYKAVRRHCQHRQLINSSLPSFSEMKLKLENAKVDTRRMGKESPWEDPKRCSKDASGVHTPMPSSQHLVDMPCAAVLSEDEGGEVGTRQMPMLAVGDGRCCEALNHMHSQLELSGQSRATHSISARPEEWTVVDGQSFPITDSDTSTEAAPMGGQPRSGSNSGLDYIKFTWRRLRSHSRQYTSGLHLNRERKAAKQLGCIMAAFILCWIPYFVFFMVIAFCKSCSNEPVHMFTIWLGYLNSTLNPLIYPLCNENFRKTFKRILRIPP

H1 receptor (%), inhibition rate (H1 receptor; a: 100 μM): 30%
Kd (LTD4 receptor; [1]): 129 nM
Compound: 7-[3-(2-Quinolinylmethoxy)benzyloxy]-3,4-dihydro-2H-1,4-benzothiazin-3-one 1,1-dioxide [Example 77]

Kd (H1 receptor; [2]): 67200 nM
Kd (LTD4 receptor; [1]): 11.4 nM
Compound: 7-[3-(2-quinolinylmethoxy)benzyloxy]-2,3,4,5-tetrahydro-tetrazolo-[5,1-a][2]benzazepin [Example 87]

inhibition at 10 µM (H1 receptor; b: 10 μM, read-out: H1 receptor (%), inhibition rate): 4%
inhibition at 10 µM (LTD4 receptor; b: 10 μM): 9%
Compound: CN(Cc1cccc(OCc2ccc3ccccc3n2)c1)c1ccc2c(c1)SCC(=O)N2 [96(a), 7-[N-methyl-N-{3-(2-quinolinylmethoxy)benzyl}amino]-3,4-dihydro-2H-1,4-benzothiazin-3-one]

Kd (LTD4 receptor): 118 nM
Compound: N#Cc1cc2cc(OCc3cccc(OCc4ccc5ccccc5n4)c3)ccc2[nH]c1=O [Example 1, 3-cyano-6-[3-(2-quinolinylmethoxy)benzyloxy]-1,2-dihydroquinolin-2-one]

inhibition at 100 µM (LTD4 receptor): 0%
Compound: Cc1ccc(OCc2ccc(OCc3ccc4ccccc4n3)cc2)c2cc(C#N)c(=O)[nH]c12 [Example 19, 3-Cyano-8-methyl-5-[4-(2-quinolinylmethoxy)benzyloxy]-1,2-dihydroquinolin-2-one]

Kd (LTD4 receptor): 335 nM
Compound: Cc1ccc(OCc2cccc(OCc3ccc4ccccc4n3)c2)c2cc(-c3nn[nH]n3)c(=O)[nH]c12 [Example 47, 8-methyl-5-[3-(2-quinolinylmethoxy)benzyloxy]-3-(5-tetrazolyl)-1,2-dihydroquinolin-2-one]

Kd (LTD4 receptor): 304 nM
Compound: Cc1ccc(OCc2ccc(OCc3ccc4ccccc4n3)cc2)c2cc(-c3nn[nH]n3)c(=O)[nH]c12 [Example 48, 8-methyl-5-[4-(2-quinolinylmethoxy)benzyloxy]-3-(5-tetrazolyl)-1,2-dihydroquinolin-2-one]

Kd (LTD4 receptor): 40000 nM
Compound: Cc1ccc(OCc2cccc(OCc3ccc4ccccc4n3)c2)c2c1NC(=S)C2(C)C [Example 49, 4-[3-(2-quinolinylmethoxy)benzyloxy]-3,3,7-trimethyl-2,3-dihydro-1H-indol-2-thione]

Kd (LTD4 receptor): 302 nM
Compound: Cc1ccc(OCc2ccc(OCc3ccc4ccccc4n3)cc2)c2cc(C(=O)O)c(=O)[nH]c12 [Example 52, 8-methyl-2-oxo-5-[4-(2-quinolinylmethoxy)benzyloxy]-1,2-dihydroquinoline-3-carboxylic acid]

Kd (LTD4 receptor): 46.2 nM
Compound: O=C1CSc2cc(NC(=O)c3cccc(OCc4ccc5ccccc5n4)c3)ccc2N1 [Example 72, 7-[3-(2-Quinolinylmethoxy)benzoylamino]-3,4-dihydro-2H-1,4-benzothiazin-3-one]

Kd (LTD4 receptor): 235000 nM
Compound: O=C1CS(=O)(=O)c2cc(OCc3cccc(OCc4ccc5ccccc5n4)c3)ccc2N1 [Example 74, 7-[3-(2-quinolinylmethoxy)benzyloxy]-3,4-dihydro-2H-1,4-benzothiazin-3-one1,1-dioxide]

The remaining lines, values behind:

Compound: 7-[4-(2-quinolinylmethoxy)benzyloxy]-2,3,4,5-tetrahydro-tetrazolo-[5,1-a][2]benzazepin [Example 88]
Kd (H1 receptor; [2]): 31100 nM
LTD4 receptor (%), inhibition rate (LTD4 receptor; b: 10 μM): 30%

Compound: Cc1ccc(OCc2cccc(OCc3ccc4ccccc4n3)c2)c2ccc(=O)[nH]c12 [Example 2, 8-Methyl-5-[3-(2-quinolinylmethoxy)benzyloxy]-1,2-dihydroquinolin-2-one]
Kd (LTD4 receptor): 1560 nM

Compound: Cc1ccc(OCc2cccc(OCc3ccc4ccccc4n3)c2)c2cc(C#N)c(=O)[nH]c12 [Example 3, 3-Cyano-8-methyl-5-[3-(2-quinolinylmethoxy)benzyloxy]-1,2-dihydroquinolin-2-one]
inhibition at 100 µM (H1 receptor; [3]): 44%
Kd (LTD4 receptor): 523 nM

Compound: Cc1ccc(OCc2cccc(OCc3ccc4ccccc4n3)c2)c2cc(Cl)c(=O)[nH]c12 [Example 4]
inhibition at 100 µM (LTD4 receptor): 0%

Compound: Cc1ccc(OCc2cccc(OCc3ccc4ccccc4n3)c2)c2c1NC(=O)CC2 [Example 5, 8-Methyl-5-[3-(2-quinolinylmethoxy)benzyloxy]-1,2,3,4-tetrahydroquinolin-2-one]
inhibition at 100 µM (H1 receptor; [3]): 57%
Kd (LTD4 receptor): 316 nM

Compound: O=C1CCc2ccc(OCc3cccc(OCc4ccc5ccccc5n4)c3)cc2N1 [Example 7]
inhibition at 100 µM (H1 receptor; [3]): 46%
Kd (LTD4 receptor): 209 nM

Compound: O=C1CCc2cccc(OCc3cccc(OCc4ccc5ccccc5n4)c3)c2N1 [Example 8, 8-[3-(2-Quinolinylmethoxy)benzyloxy]-1,2,3,4-tetrahydroquinolin-2-one]
Kd (H1 receptor): 145000 nM
Kd (LTD4 receptor): 322 nM

Compound: O=C1CCCc2cc(OCc3cccc(OCc4ccc5ccccc5n4)c3)ccc2N1 [Example 9, 7-[3-(2-Quinolinylmethoxy)benzyloxy]-2,3,4,5-tetrahydrobenz[b]azepin-2-one]
Kd (H1 receptor): 47600 nM
Kd (LTD4 receptor): 148 nM

Compound: O=C1CCSc2cc(OCc3cccc(OCc4ccc5ccccc5n4)c3)ccc2N1 [Example 11, 8-[3-(2-Quinolinylmethoxy)benzyloxy]-2,3,4,5-tetrahydro-1,5-benzothiazepin-4-one]
inhibition at 100 µM (H1 receptor; [3]): 47%
Kd (LTD4 receptor): 22 nM

Compound: O=C1Cc2c(cccc2OCc2cccc(OCc3ccc4ccccc4n3)c2)N1 [Example 12, 4-[3-(2-Quinolinylmethoxy)benzyloxy)-2,3-dihydro-1H-indol-2-one]
H1 receptor (%), inhibition rate (H1 receptor; concentration not given): 45%
Kd (LTD4 receptor): 703 nM

Compound: Cc1ccc(OCc2cccc(OCc3ccc4ccccc4n3)c2)c2c1NC(=O)C2(C)C [Example 13, 4-[3-(2-Quinolinylmethoxy)benzyloxy]-3,3,7-trimethyl-2,3-dihydro-1H-indol-2-one]
Kd (LTD4 receptor): 303 nM

Compound: Cc1ccc(OCc2ccc(OCc3ccc4ccccc4n3)cc2)c2cc(Cl)c(=O)[nH]c12 [Example 20, 3-Chloro-8-methyl-5-[4-(2-quinolinylmethoxy)benzyloxy]-1,2-dihydroquinolin-2-one]
inhibition at 100 µM (LTD4 receptor): 0%

Compound: O=C1CSc2cc(OCc3ccc(OCc4ccc5ccccc5n4)cc3)ccc2N1 [Example 26, 7-[4-(2-Quinolinylmethoxy)benzyloxy]-3,4-dihydro-2H-1,4-benzothiazin-3-one]
Kd (LTD4 receptor): 546000 nM

Compound: O=C(O)c1cc2cc(OCc3cccc(OCc4ccc5ccccc5n4)c3)ccc2[nH]c1=O [Example 50, 2-oxo-6-[3-(2-quinolinylmethoxy)benzyloxy]-1,2-dihydroquinoline-3-carboxylic acid]
Kd (LTD4 receptor): 1080 nM

Compound: Cc1ccc(OCc2cccc(OCc3ccc4ccccc4n3)c2)c2cc(C(=O)O)c(=O)[nH]c12 [Example 51, 8-methyl-2-oxo-5-[3-(2-quinolinylmethoxy)benzyloxy]-1,2-dihydroquinoline-3-carboxylic acid]
Kd (LTD4 receptor): 11700 nM

Compound: O=C1CSc2cc(OC(=O)c3cccc(OCc4ccc5ccccc5n4)c3)ccc2N1 [Example 58, 7-[3-(2-Quinolinylmethoxy]benzoyloxy]-3,4-dihydro-2H-1,4-benzothiazin-3-one]
inhibition at 100 µM (LTD4 receptor): 0%

Compound: Cc1ccc(OC(=O)c2ccc(OCc3ccc4ccccc4n3)cc2)c2cc(C#N)c(=O)[nH]c12 [Example 62, 3-Cyano-8-methyl-5-[4-(2-quinolinylmethoxy)benzoyloxy]-1,2-dihydroquinolin-2-one]
LTD4 receptor (%), inhibition rate (LTD4 receptor; concentration not given): 0%

Compound: O=C1CSc2cc(OC(=O)c3ccc(OCc4ccc5ccccc5n4)cc3)ccc2N1 [Example 66, 7-[4-(2-Quinolinylmethoxy)benzoyloxy]-3 4-dihydro-2H-1,4-benzothiazin-3-one]
inhibition at 10 µM (LTD4 receptor; b: 10 μM): 28%

Compound: O=C1CSc2cc(NC(=O)c3ccc(OCc4ccc5ccccc5n4)cc3)ccc2N1 [Example 73]
inhibition at 10 µM (LTD4 receptor; b: 10 μM): 20%

Compound: O=C1CSc2cc(OCc3cccc(/C=C/c4ccc5ccc(Cl)cc5n4)c3)ccc2N1 [Example 81, trans-7-[3-[2-(7-chloroquinolin-2-yl)ethenyl]benzyloxy]-2H-3,4-dihydro-1,4-benzothiazin-3-one]
Kd (LTD4 receptor): 13 nM
